Results reported in patent US20070270421A1, “Novel pyridine Derivative and Pyrimidine Derivative (1)” (priority 2004, published 2007).

Biological target: T1, HGFR (His6-HGFR cytoplasmic domain) (Homo sapiens, UniProt P08581)
T1 construct: made in house; host or cells: Spodoptera frugiperda Sf9 insect cells (baculovirus, pFastBac-HT)
Test: Inhibitory activity against HGFR tyrosine kinase activity (HTRF)
Assay type: biochemical
Conditions: biotin-poly(GT), ATP, 30° C. 10 min, read-out: IC50 (concentration necessary to inhibit HGFR kinase activity by 50%)
In short: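 Baculovirus/Sf9-expressed N-terminal His6-tagged HGFR cytoplasmic domain (from Lys974), Ni-NTA purified, phosphorylated biotin-poly(GT) in Hepes pH 7.4 with MgCl2/MnCl2. ATP added as 4 μM solution; 10 min at 30° C., stopped with EDTA. Phosphotyrosine product detected by HTRF.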

T1 sequence (P08581 956-1390 limits assumed): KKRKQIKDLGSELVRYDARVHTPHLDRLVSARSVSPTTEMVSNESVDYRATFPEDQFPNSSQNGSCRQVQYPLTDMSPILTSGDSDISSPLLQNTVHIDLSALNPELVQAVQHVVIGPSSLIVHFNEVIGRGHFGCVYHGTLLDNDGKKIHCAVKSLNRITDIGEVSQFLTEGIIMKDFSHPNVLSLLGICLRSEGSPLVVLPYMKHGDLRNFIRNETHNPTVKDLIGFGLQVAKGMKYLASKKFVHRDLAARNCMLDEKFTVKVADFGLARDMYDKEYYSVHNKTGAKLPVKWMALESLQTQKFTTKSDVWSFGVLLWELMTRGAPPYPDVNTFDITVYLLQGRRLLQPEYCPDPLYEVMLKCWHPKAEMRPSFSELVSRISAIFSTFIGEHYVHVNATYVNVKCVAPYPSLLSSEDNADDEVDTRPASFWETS

IC50: 100 nM
SMILES: O=C(Cc1ccccc1)NC(=S)Nc1ccc(Oc2ccnc(NC(=O)N3CCC(N4CCOCC4)CC3)c2)c(F)c1 [Example 258, 4-{2-Fluoro-4-[3-(2-phenylacetyl)thioureido]phenoxy}-2-{[4-(morpholin-4-yl)piperidin-1-yl]carbonylamino}pyridine]
